Data on 1 molecule can be found in PMC6658782, “The Novel Arylamidine T-2307 Selectively Disrupts Yeast Mitochondrial Function by Inhibiting Respiratory Chain Complexes” (Antimicrobial Agents and Chemotherapy, 2019).

Values after ≈ are worked out from the molar mass of the structure shown. Values joined by “and” are separate entries in the source; they are usually repeats but may differ in a detail not shown here. Equal values may be shown once.

In data set [1] the target is respiratory chain complex IV (Candida albicans, UniProt P0C8K9+Q9B1P9+Q9B8D8). The experiment in a line: Respiratory chain enzymatic activity, complex IV, C. albicans. The note with it: C. albicans mitochondria; read-out: IC50 ± SD, Complex IV. Type of data set: biochemical.
The test system of data set [2] is Saccharomyces cerevisiae. Briefly: MIC determination, broth microdilution in semisynthetic medium. Format: cell-based. How it is done:
MIC was determined using the broth microdilution method based on the Clinical and Laboratory Standards Institute method with the following minor modifications ([38]). The medium used for MIC determination was semisynthetic medium, which was used for the measurement of intracellular ATP levels as described above. […].
(In broth dilution the organism is exposed to a series of concentrations in liquid medium.)

Data set [3] deals with whole yeast cells. The experiment in a line: Oxygen consumption of whole yeast cells (oxygen electrode). Type of data set: cell-based, Saccharomyces cerevisiae.
Data set [4] concerns isolated yeast mitochondria. Briefly: Mitochondrial oxygen consumption (MitoXpress probe). Format: biochemical, Saccharomyces cerevisiae. How it is done:
S. cerevisiae from frozen stock (−80°C) was inoculated into yeast extract-peptone-glucose (YPD) medium (1% yeast extract, 2% peptone, and 2% glucose) and grown for 24 h at 30°C. The cultured cells were subcultured into yeast extract-peptone-galactose (YPGal) medium (1% yeast extract, 2% peptone, 2% galactose, and 0.1% glucose) and incubated overnight with continuous shaking at 30°C. When the optical density at 600 nm reached approximately 1.0, the cells were collected by centrifugation (3,000 × g at room temperature for 5 min). Intact mitochondria were isolated as per a previously described protocol ([35]) with minor modifications as follows. Yeast cells were converted to spheroplasts by incubation with Zymolyase-20T (Nacalai Tesque, Inc., Kyoto, Japan) (4 mg of Zymolyase-20T/g [wet weight] of cells) and disrupted using a Dounce homogenizer. The crude mitochondrial fraction was isolated by differential centrifugation ([35]). […]. The mitochondrial protein concentration was determined using the DC protein assay (Bio-Rad Laboratories, Inc., Hercules, CA, USA) following the manufacturer’s instructions. The mitochondrial stock solution was maintained on ice during the oxygen consumption experiment.
The mitochondrial oxygen consumption was measured using a phosphorescent oxygen-sensitive probe, MitoXpress-Xtra (Agilent Technologies, Santa Clara, CA, USA), as described previously ([16], [36]). Succinate was used as a respiratory substrate in this assay. […] A microplate reader, PHERAstar Plus (BMG Labtech GmbH, Ortenberg, Germany), was used to read. The time-resolved fluorescence protocol was set to read the plate at 1.5-min intervals for 60 min at an excitation wavelength of 337 nm, an emission wavelength of 665 nm, a delay time of 40 μs, and a gate time of 100 μs at 30°C.
[…]. […] For quantitative assessment, OCR was determined from the slope of the initial 7.5 min. OCR is expressed as micromolar of O2 per minute per milligram of protein.
The drug concentration was expressed as micromoles per milligram of protein. […]

The subject of data set [5] is S. cerevisiae cells. Briefly: Accumulation of T-2307 in S. cerevisiae cells. Type of data set: cell-based, Saccharomyces cerevisiae.
Data set [6] has as its target respiratory chain complex IV (Saccharomyces cerevisiae, UniProt P00401+P00410+P00420). The experiment in a line: Respiratory chain enzymatic activity, complex IV, S. cerevisiae. Format: biochemical.
The test system of data set [7] is C. albicans. The settings on record: cited from earlier work.
For data set [8], the system named is rat liver mitochondria. Also noted: method as in PMID 22948882. The note with it: cited from earlier work.
Data set [9] addresses respiratory chain complex I (Bos taurus, UniProt P03887+P17694+P42026). The experiment in a line: MitoCheck complex I activity assay, bovine heart mitochondria. Format: biochemical. How it is done: The enzymatic activities of bovine heart mitochondrial respiratory chain complexes were determined using MitoCheck complex I, complex II/III, and complex IV activity assay kits (Cayman Chemical, Ann Arbor, MI, USA). Bovine heart mitochondria from these kits were used for experiments. The experiments were performed following the manufacturer’s instructions. In the experiments, 2 μM rotenone, 1 mM KCN, and both 1 mM TTFA and 5 μg/ml antimycin A served as positive controls for the inhibition of complex I, complex IV, and complexes II plus III, respectively.
In all experiments, the reaction rate of each enzyme was determined by calculating the slope of the linear portion of the curve. Complex I activity in C. albicans was calculated by subtracting the rotenone-insensitive enzymatic activity (with 10 μM rotenone) from the NADH dehydrogenase activity (without rotenone).
OCRs in isolated mitochondria and intracellular ATP levels were compared between the control and treatment groups using the parametric Dunnett’s multiple-comparison test. P values of <0.05 (comparison of multiple groups) were considered statistically significant. IC50 values were determined from dose-response curves compared with untreated control samples using a four-parameter logistic curve-fitting analysis. Data were analyzed using JMP 13.0 (SAS Institute Japan Ltd., Tokyo, Japan).

For data set [10], the target named is respiratory chain complex I (Candida albicans, UniProt Q9B8D6). The experiment in a line: Respiratory chain enzymatic activity, complex I (rotenone-sensitive), C. albicans. Type of data set: biochemical. The settings on record: read-out: IC50 ± SD, Complex I.
The target in data set [11] is NADH dehydrogenase. The experiment in a line: NADH dehydrogenase activity, C. albicans. Format: biochemical, Candida albicans. The note with it: C. albicans mitochondria; involves complex I activity; read-out: IC50 against NADH dehydrogenase activity.
The test system of data set [12] is S. cerevisiae. The settings on record: cited from earlier work.

Sequence of respiratory chain complex IV (Candida albicans, UniProt P0C8K9+Q9B1P9+Q9B8D8) (P0C8K9 whole entry): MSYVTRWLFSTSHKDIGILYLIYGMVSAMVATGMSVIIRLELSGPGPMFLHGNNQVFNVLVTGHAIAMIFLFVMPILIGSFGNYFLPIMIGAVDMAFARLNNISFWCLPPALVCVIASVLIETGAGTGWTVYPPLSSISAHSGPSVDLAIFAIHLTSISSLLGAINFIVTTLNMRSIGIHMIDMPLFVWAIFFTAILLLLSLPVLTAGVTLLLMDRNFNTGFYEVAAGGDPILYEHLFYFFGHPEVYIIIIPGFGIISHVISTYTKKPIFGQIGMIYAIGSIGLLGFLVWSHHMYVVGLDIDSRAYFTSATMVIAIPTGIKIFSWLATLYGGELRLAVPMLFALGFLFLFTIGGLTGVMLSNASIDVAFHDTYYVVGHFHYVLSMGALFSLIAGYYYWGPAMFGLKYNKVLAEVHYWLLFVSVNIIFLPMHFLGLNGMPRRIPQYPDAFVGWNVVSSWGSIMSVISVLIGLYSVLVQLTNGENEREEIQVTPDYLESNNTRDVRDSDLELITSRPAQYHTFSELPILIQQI
Sequence of respiratory chain complex IV (Candida albicans, UniProt P0C8K9+Q9B1P9+Q9B8D8) (Q9B8D8 whole entry): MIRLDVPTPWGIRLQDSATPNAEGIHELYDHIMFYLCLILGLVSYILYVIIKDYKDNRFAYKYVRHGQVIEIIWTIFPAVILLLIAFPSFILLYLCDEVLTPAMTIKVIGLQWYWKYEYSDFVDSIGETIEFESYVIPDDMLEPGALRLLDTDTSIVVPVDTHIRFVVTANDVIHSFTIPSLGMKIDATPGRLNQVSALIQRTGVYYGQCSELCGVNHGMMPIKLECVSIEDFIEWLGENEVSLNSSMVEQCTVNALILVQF
Sequence of respiratory chain complex IV (Candida albicans, UniProt P0C8K9+Q9B1P9+Q9B8D8) (Q9B1P9 whole entry): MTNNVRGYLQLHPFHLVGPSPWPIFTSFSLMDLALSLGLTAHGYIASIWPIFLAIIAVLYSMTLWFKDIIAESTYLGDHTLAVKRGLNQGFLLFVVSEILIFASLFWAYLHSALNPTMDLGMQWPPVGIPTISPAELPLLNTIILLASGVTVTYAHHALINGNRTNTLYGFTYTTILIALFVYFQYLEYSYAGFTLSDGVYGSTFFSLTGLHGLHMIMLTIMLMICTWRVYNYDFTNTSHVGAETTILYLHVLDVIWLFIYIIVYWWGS

One may read the IC50 as the concentration needed to halve the response being measured. As a reminder, the MIC is the smallest concentration in the dilution series that meets the test's criterion for growth inhibition. In general, inhibition refers to the percentage by which the read-out fell short of the control. The remaining activity is what remains of the control signal, in per cent. For the molecule `N=C(N)c1ccc(OCCCC2CCN(CCCOc3ccc(C(=N)N)cc3)CC2)cc1` [T-2307], the IC50 in data set [1] is 225 ± 23 µM; in [6] it was 149 ± 23 µM; in data set [9] (bovine heart mitochondria, read-out: IC50 ± SD, Complex I) it was greater than 3000 µM; in data set [10] it was 344 ± 32 µM; in [11] it was 2000 µM. Also, in data set [2] (72 h), the MIC is 0.0068 µg/mL and 0.0156 µM. Besides, the inhibition at 0.125 µM in data set [2] (read-out: growth inhibition) was greater than 75%. Also, in data set [3], the “effect on oxygen consumption in whole yeast cells” value is listed as “dose-dependent inhibition of respiration”. In addition, in data set [4], the “effect on mitochondrial oxygen consumption rate (OCR)” value is given as “dose-dependent decrease”. Moreover, the “concentration in cells relative to extracellular medium” value in data set [5] was “approximately 6,000 fold”. The MIC reported previously in [7] is 4 nM (≈ 1.75 ng/mL); in [12], 2 nM (≈ 0.875 ng/mL). In data set [8], the “effect on the MMP and on respiration in rat liver mitochondria” value was “little effect”. The remaining activity at 3000 µM in data set [9] (bovine, read-out: remaining enzymatic activity of complex I) turned out to be 68%.
